pIC50: −log10 of the molar value. Values joined by “and” are separate entries in the source; they are usually repeats but may differ in a detail not shown here. Identical values can stand only once.
Test system: 377384-186-R-J1-PDC complex spheroid viability
Assay: Anticancer human tumor 377384-186-R-J1-PDC patient-derived pancreatic carcinoma cell line growth inhibition [CLK]
Details: for viability, T/C: stronger effect = lower value; for pIC50: curve of compound; for IC50: compound alone
Description: A high-throughput screen of multi-cell type tumor spheroids was designed to identify active combinations of […] and targeted small molecules. Complex spheroids include a stromal component modeled by human endothelial cells (HUVEC) and fibroblasts modeled by human mesenchymal stem cells (MSCs). The concentration ranges selected for each drug and investigational agent were based upon clinically achievable concentrations if the clinical Cmax of the agent was known.
Compounds. The drugs and investigational agents: cirtuvivint (SM08502; NSC835563), CC-671 (NSC850746), vemurafenib (NSC761431), tapotoclax (NSC804041), sotorasib (NSC818433), adagrasib (NSC831453), MRTX-1133 (NSC836407), BAY2416964 (NSC825713), copanlisib (NSC816437), inavolisib (NSC800729), abemaciclib (NSC768073), osimertinib (NSC779217), entinostat (NSC756642), eltanexor (KPT-8602, NSC794443), venetoclax (NSC766270), ceralasertib (NSC777638), bortezomib (NSC756655), olaparib (NSC753686), talazoparib (NSC767125), alisertib (NSC759677), peposertib (NSC802822), gemcitabine (NSC613327), 5-fluorouracil (NSC19893), SN-38 (NSC673596), oxaliplatin (NSC266046), paclitaxel (NSC125973), and doxorubicin (NSC123127), were obtained from the National Cancer Institute (NCI) Developmental Therapeutics Program Chemical Repository. The FDA-approved anticancer drug set is available from the Developmental Therapeutics Program at https://dtp.cancer.gov/organization/dscb/obtaining/available plates.htm. […] The stock solutions were prepared in dimethyl sulfoxide (DMSO, Sigma-Aldrich, St. Louis, MO, cat. D2650), except for the platinum complexes which were prepared in saline (Quality Biological, Gaithersburg, MD, cat. 114-055-101), at 800-fold the tested concentration and stored at -70 degrees C prior to their use. All drugs and investigational agents were tested over a range starting from a high concentration at or near the clinical Cmax and decreasing in half-log increments. If the clinical Cmax for an agent had not been determined, the highest concentration tested was 10 microM.
Cell Culture. All cells were maintained in an incubator at 37 degrees C and 5% CO2 with 95% humidity. The PDC lines were cultured according to standard operating procedures established by the NCI PDMR. Briefly, all PDCs were thawed and cultured in Matrigel-coated flasks prepared with a working solution of 1X Ham's F-12 nutrient mix, without supplementation (Invitrogen, Waltham, MA, cat. 11765054), 100 U/mL penicillin-streptomycin (Invitrogen, cat. 15140122), and 2.5% Matrigel (Corning Inc., Corning, NY, cat. 354248) for the first three passages. The 947758-054-R-J2-PDC line was cultured in 6B/Colon 1A media, which includes advanced DMEM/F-12 (Thermo Fisher Scientific, cat. 12634028), 10 mM HEPES (Thermo Fisher Scientific, cat. 15630080), 1X GlutaMAX supplement (Thermo Fisher Scientific, cat. 35050061), 0.1 mg/mL primocin (InvivoGen, cat. ant-pm-2), 10% defined fetal bovine serum, heat inactivated (HyClone Laboratories Inc., cat. SH30070.03HI), 1.25 mM N-Acetyl-L-cysteine (Sigma-Aldrich, cat. A9165), 10 mM nicotinamide (Sigma-Aldrich, cat. N0636), 1X B-27 supplement (Thermo Fisher Scientific, cat. 17504044), 1X N-2 supplement (Thermo Fisher Scientific, cat. 17502048), and 10 microM Y-27632 dihydrochloride (Tocris Bioscience, cat. 1254). The 876862-298-R-J1-PDC was cultured in 6E media, which includes all 6B/Colon 1A media components plus 50% L-WRN conditioned media (ATCC, cat. CRL-3276), 50 ng/mL recombinant human EGF recombinant protein (hEGF; Thermo Fisher Scientific, cat. PHG0311), 10 ng/mL recombinant human fibroblast growth factor 10 (hGFG-10; PeproTech, cat. 100-26), 1 ng/mL recombinant human fibroblast growth factor 2 (hFGF-2; PeproTech, cat. 100-18B), and 1 µM prostaglandin E2 (PGE2; Tocris, cat. 2296). The 227483-062-R1-J1-PDC line was cultured in Panc media, containing all 6E components except hFGF-2, with the addition of 500 nM SB-431542 (Selleckchem, cat. S1067) and 10 nM gastrin (Tocris, cat. 3006). […]
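Further: spheroids exposed to agents for 7 days before reading.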
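Wherever viability, T/C is given: luminescence signal used as a stand-in for viable cells.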

| Structure (SMILES) | viability, T/C (compound 0.0316 µM) | viability, T/C (compound 0.1 µM) | viability, T/C (compound 0.316 µM) | viability, T/C (compound 1 µM) | viability, T/C (compound 3.16 µM) | viability, T/C (compound 10 µM) | pIC50 | further results |
| --- | --- | --- | --- | --- | --- | --- | --- | --- |
| C#Cc1c(F)ccc2cc(O)cc(-c3ncc4c(N5CC6CCC(C5)N6)nc(OCC56CCCN5CC(F)C6)nc4c3F)c12 (configuration not stated) | 21.7% and 21.4% | 9.43% and 10.6% | 5.31% and 3.97% | 4.69% and 4.41% | 2.25% and 2.02% | 1.85% and 1.77% | > 7.50 | – |
| C=C(F)C(=O)N1CCN(c2nc(OCC3CCCN3C)nc3c2CCN(c2cccc4cccc(Cl)c24)C3)CC1CC#N (configuration not stated) | 88.4% and 94.1% | 97.7% and 89.9% | 86.1% and 91.8% | 73.6% and 70.8% | 21.3% and 26.5% | 0.31% and 0.54% | 5.78 and 5.76 | – |
| C=CC(=O)N1CCN(c2nc(=O)n(-c3c(C)ccnc3C(C)C)c3nc(-c4c(O)cccc4F)c(F)cc23)C(C)C1 (configuration not stated) | 108% and 87.8% | 83.9% and 127% | 100% and 101% | 119% and 105% | 110% and 117% | 84.3% and 90.5% | < 5.00 | – |
| C=CC(=O)Nc1cc(Nc2nccc(-c3cn(C)c4ccccc34)n2)c(OC)cc1N(C)CCN(C)C | – | – | – | – | – | – | < 6.52 | viability, T/C (compound 0.000949 µM): 104% and 105%; viability, T/C (compound 0.003 µM): 84.7% and 99.9%; viability, T/C (compound 0.00949 µM): 85.3% and 108%; viability, T/C (compound 0.03 µM): 85.4% and 97.6%; viability, T/C (compound 0.0949 µM): 78% and 77.1%; viability, T/C (compound 0.3 µM): 50% and 62% |
| CC(C)CC(NC(=O)C(Cc1ccccc1)NC(=O)c1cnccn1)B(O)O (configuration not stated) | – | – | – | – | – | – | 8.84 and 8.90 | viability, T/C (compound 0.000949 µM): 76.6% and 65.6%; viability, T/C (compound 0.003 µM): 1.85% and 2.08%; viability, T/C (compound 0.00949 µM): 0.32% and 0.23%; viability, T/C (compound 0.03 µM): 0.26% and 0.38%; viability, T/C (compound 0.0949 µM): 0.18% and 0.14%; viability, T/C (compound 0.3 µM): 0.78% and 0.14% |
| CC(CO)NC(=O)c1cc(-c2ccc(Cl)cc2)nn(-c2cnn(C)c2)c1=O (configuration not stated) | 94.9% and 112% | 101% and 85.5% | 105% and 103% | 102% and 82.1% | 77.7% and 70.1% | 39.5% and 45.9% | 5.14 and 5.07 | – |
| CC(Nc1ccc2c(c1)OCCn1cc(N3C(=O)OCC3C(F)F)nc1-2)C(N)=O (configuration not stated) | 86.6% and 85.8% | 90.3% and 69.1% | 59.9% and 53% | 56.3% and 54% | 49.6% and 35.9% | 43.6% and 36.5% | – | – |
| CC1(C)CCC(CN2CCN(c3ccc(C(=O)NS(=O)(=O)c4ccc(NCC5CCOCC5)c([N+](=O)[O-])c4)c(Oc4cnc5[nH]ccc5c4)c3)CC2)=C(c2ccc(Cl)cc2)C1 | 83.6% and 106% | 86.1% and 92.5% | 92.9% and 90.5% | 99% and 97% | 82.7% and 83.9% | – | 5.28 and < 5.00 | – |
| CC1COCCN1c1cc(C2(S(C)(=N)=O)CC2)nc(-c2ccnc3[nH]ccc23)n1 (configuration not stated) | 85.7% and 90.6% | 108% and 109% | 83.9% and 91.1% | 82.9% and 74.7% | 44% and 35.3% | 17.6% and 14.9% | 5.58 and 5.69 | – |
| CCCS(=O)(=O)Nc1ccc(F)c(C(=O)c2c[nH]c3ncc(-c4ccc(Cl)cc4)cc23)c1F | 94.9% and 92.5% | 86% and 102% | 120% and 114% | 126% and 124% | 114% and 105% | 59.8% and 57.9% | < 5.00 | – |
| CCN1CCN(Cc2ccc(Nc3ncc(F)c(-c4cc(F)c5nc(C)n(C(C)C)c5c4)n3)nc2)CC1 | 74% and 73.8% | 61% and 58.6% | 45.6% and 50.9% | 39.5% and 40.4% | – | – | 6.61 and 6.47 | viability, T/C (compound 0.00316 µM): 84.8% and 87.7%; viability, T/C (compound 0.01 µM): 74.9% and 74.1% |
| CCc1c2c(nc3ccc(O)cc13)-c1cc3c(c(=O)n1C2)COC(=O)[C@]3(O)CC | 6.41% and 5.33% | 3.96% and 2.67% | 1.37% and 1.52% | 0.82% and 0.63% | – | – | > 8.50 | viability, T/C (compound 0.00316 µM): 30% and 30.1%; viability, T/C (compound 0.01 µM): 17.2% and 14.6% |
| CN1CCN(c2cc(C(=O)Nc3cc4cc(-c5cnn(C)c5)ccc4cn3)ccn2)CC1 | 102% [middle of 12 runs] | 103% [middle of 12 runs] | 25.7% [middle of 12 runs] | 1.33% [middle of 12 runs] | 0.96% [middle of 11 runs] | 0.49% [middle of 11 runs] | – | IC50 (run of 07/31/2023): 220 nM [middle of 9 runs] |
| CNC(=O)c1ccc(Nc2nc(OC3CCCC3)c3c(-c4ccc5nc(C)oc5c4)c[nH]c3n2)c(OC)c1 | 102% [middle of 12 runs] | 57.2% [middle of 12 runs] | 20.9% [middle of 12 runs] | 20.4% [middle of 12 runs] | 21% [middle of 12 runs] | 21.6% [middle of 12 runs] | – | IC50 (run of 08/01/2023): 130 nM [middle of 11 runs] |
| COC1C=CCC(C)C(C)S(=O)(=O)NC(=O)c2ccc3c(c2)N(CC2CCC21)CC1(CCCc2cc(Cl)ccc21)CO3 (configuration not stated) | 88.4% and 110% | 101% and 94.2% | 82% and 79% | 96.1% and 69.6% | 65.8% and 61.7% | 11.2% and 20.1% | 5.36 and 5.47 | – |
| COc1c(OCCCN2CCOCC2)ccc2c3n(c(=NC(=O)c4cnc(N)nc4)nc12)CCN3 | 50% and 52.3% | 34.4% and 30.3% | 22.4% and 22.7% | 14.3% and 13.8% | – | – | 7.46 and 7.55 | viability, T/C (compound 0.00316 µM): 89.6% and 77.6%; viability, T/C (compound 0.01 µM): 72.4% and 61.6% |
| Cn1ncnc1[C@H]1c2n[nH]c(=O)c3cc(F)cc(c23)N[C@@H]1c1ccc(F)cc1 | 53.4% and 47.6% | 41.8% and 43.1% | – | – | – | – | 7.51 and 7.48 | viability, T/C (compound 0.000316 µM): 86.8% and 87.2%; viability, T/C (compound 0.001 µM): 73.7% and 74.4%; viability, T/C (compound 0.00316 µM): 62.4% and 66.9%; viability, T/C (compound 0.01 µM): 57.6% and 62.5% |
| NC(=O)C(=Cn1cnc(-c2cc(C(F)(F)F)cc(C(F)(F)F)c2)n1)c1cncnc1 | – | – | – | – | – | – | 7.12 and 7.24 | viability, T/C (compound 0.00949 µM): 78.2% and 92.5%; viability, T/C (compound 0.03 µM): 70.7% and 66.7%; viability, T/C (compound 0.0949 µM): 41.7% and 36.3%; viability, T/C (compound 0.3 µM): 27% and 18.9%; viability, T/C (compound 0.949 µM): 7.58% and 5.02%; viability, T/C (compound 3 µM): 3.05% and 2.18% |
| Nc1ccccc1NC(=O)c1ccc(CNC(=O)OCc2cccnc2)cc1 | 85.8% and 79.5% | 85.5% and 77.1% | 65.3% and 57.9% | 35.8% and 30.4% | 13.3% and 12.8% | 2.14% and 1.31% | 6.23 and 6.34 | – |
| Nc1ccn(C2OC(CO)C(O)C2(F)F)c(=O)n1 (configuration not stated) | 10.8% and 6.86% | 4.28% and 3.83% | 5.62% and 2.98% | 2.41% and 2.75% | 3.34% and 2.18% | 2.14% and 1.73% | > 7.50 | – |
| O=C(c1cc(Cc2n[nH]c(=O)c3ccccc23)ccc1F)N1CCN(C(=O)C2CC2)CC1 | 75.9% and 81.2% | 78.6% and 74% | 73.8% and 82.2% | 74.3% and 63.9% | 65.9% and 51.8% | 43.2% and 39% | 5.15 and 5.49 | – |
| O=c1[nH]cc(F)c(=O)[nH]1 | 88.5% and 94.6% | 82.7% and 110% | 93.3% and 88.5% | 68.9% and 68.5% | 50.5% and 51.5% | 45.1% and 41.7% | 5.55 and 5.52 | – |
